Assay [1] has as its target T1, NS5B from the BK strain (genotype 1b) (Hepatitis C virus genotype 1b, UniProt P26663).
T1 construct: NS5B from the BK strain (genotype 1b) is expressed in E coli as a protein in which the 21 C-terminal amino acids are replaced; made in house; host or cells: E. coli
Nature of the assay: Hepatitis C polymerase (NS5B, BK strain) inhibition, radioactive filter assay. In kind it is biochemical. The following applies: NS5B BK strain (genotype 1b). Summed up: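 E. coli-expressed C-terminally truncated His-tagged NS5B preincubated 15 min with compound at room temperature, then run 2 h at 22-25 °C on a hairpin-primed heteropolymeric RNA template (~3 nM) with radioactive nucleotides. EDTA stop; ~760 nt 33P product captured on filters, washed with phosphate buffer pH 7.0, scintillation counted.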

Assay [2] has as its target BB7 RNA-dependent RNA polymerase hepatitis C virus protein (Con1 HCV sequence) (Hepatitis C virus genotype 1b, UniProt Q9WMX2). Nature of the assay: Hepatitis C polymerase (BB7) inhibition. In kind it is biochemical. Summed up:
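Con1 (BB7) replicon-derived NS5B polymerase preincubated with compound (15% DMSO) 15 min at room temperature, then RNA template (~3 nM pOF) and nucleotides added. Reaction run 2 h at 22-25° C., stopped with EDTA (85 mM final). ^33P-labelled product captured on filters, washed with 0.5 M sodium phosphate pH 7.0, scintillation counted.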

The mark [3] stands for this setting: BB7 (Con1) NS5B, read-out: BB7 IC50.

Read-outs that look alike come from different tables or passages of the source.

Sequence of BB7 RNA-dependent RNA polymerase hepatitis C virus protein (Con1 HCV sequence) (Q9WMX2 2420-3010): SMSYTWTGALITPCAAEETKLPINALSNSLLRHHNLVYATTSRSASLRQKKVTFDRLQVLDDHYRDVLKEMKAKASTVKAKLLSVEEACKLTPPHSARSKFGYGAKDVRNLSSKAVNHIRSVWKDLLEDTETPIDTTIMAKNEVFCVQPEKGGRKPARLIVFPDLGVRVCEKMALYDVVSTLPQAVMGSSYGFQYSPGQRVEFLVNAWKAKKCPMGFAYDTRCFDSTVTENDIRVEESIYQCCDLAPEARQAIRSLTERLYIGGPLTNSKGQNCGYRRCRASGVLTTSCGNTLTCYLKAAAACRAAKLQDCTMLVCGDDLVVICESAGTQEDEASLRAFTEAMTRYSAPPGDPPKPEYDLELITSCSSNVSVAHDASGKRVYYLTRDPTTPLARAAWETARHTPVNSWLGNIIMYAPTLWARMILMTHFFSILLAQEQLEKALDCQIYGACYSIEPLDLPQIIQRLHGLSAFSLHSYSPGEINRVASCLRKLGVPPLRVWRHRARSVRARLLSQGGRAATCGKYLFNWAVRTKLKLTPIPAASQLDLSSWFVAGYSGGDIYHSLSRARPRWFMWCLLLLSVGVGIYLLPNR
T1 sequence (P26663 2420-2989): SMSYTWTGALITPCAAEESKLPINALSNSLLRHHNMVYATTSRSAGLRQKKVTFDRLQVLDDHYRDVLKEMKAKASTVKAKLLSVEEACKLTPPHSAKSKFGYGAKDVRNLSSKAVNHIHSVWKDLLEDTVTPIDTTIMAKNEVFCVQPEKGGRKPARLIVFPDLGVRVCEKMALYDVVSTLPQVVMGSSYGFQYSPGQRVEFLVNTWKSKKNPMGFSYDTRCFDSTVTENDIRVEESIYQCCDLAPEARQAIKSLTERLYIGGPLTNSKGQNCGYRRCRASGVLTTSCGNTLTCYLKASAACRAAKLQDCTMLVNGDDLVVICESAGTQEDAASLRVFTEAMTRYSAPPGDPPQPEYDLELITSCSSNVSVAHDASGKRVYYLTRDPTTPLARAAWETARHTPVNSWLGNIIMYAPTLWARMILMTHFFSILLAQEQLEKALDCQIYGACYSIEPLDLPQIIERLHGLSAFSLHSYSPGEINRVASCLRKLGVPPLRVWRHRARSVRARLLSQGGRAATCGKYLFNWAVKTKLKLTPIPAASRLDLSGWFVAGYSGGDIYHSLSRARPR

As usually defined, the IC50 is the concentration that inhibits the measured activity by half. With `CCCC1(CC(=O)O)OCCc2c1[nH]c1c(C)c(OCc3cc[nH]n3)cc(C#N)c21` (centres unmarked) [Example 83], the IC50 in assay [1] and in assay [2] was < 500 nM throughout.

Take `CCCC1(CC(=O)O)OCCc2c1[nH]c1c(C)c(OC(C)c3cc(C)n(C)n3)cc(C#N)c21` (centres unmarked) [Example 84]: the IC50 in assay [1] and in assay [2] (setting [3]) was < 500 nM throughout.

For `CCCC1(CC(=O)O)OCCc2c1[nH]c1c(C)c(OCc3csc(C(C)(C)C)n3)cc(C#N)c21` (centres unmarked) [Example 85], the IC50 in assay [1] and in assay [2] was < 500 nM in each case.

Take `CCCC1(CC(=O)O)OCCc2c1[nH]c1c(C)c(OCc3nc(C)ccc3OC)cc(C#N)c21` (centres unmarked) [Example 86]: the IC50 in assay [1] and in assay [2] was < 500 nM each time.

For `CCCC1(CC(=O)O)OCCc2c1[nH]c1c(C)c(OCc3nnc(C(C)(C)C)s3)cc(C#N)c21` (centres unmarked) [Example 87], the IC50 in assay [1] and in assay [2] was < 500 nM throughout.

With `CCCC1(CC(=O)O)OCCc2c1[nH]c1c(C)c(OCc3noc(C(C)(C)C)n3)cc(C#N)c21` (centres unmarked) [Example 88], the IC50 in assay [1] and in assay [2] was < 500 nM each time.

For the compound `CCCC1(CC(=O)O)OCCc2c1[nH]c1c(C)c(OCCCc3cc(C)no3)cc(C#N)c21` (centres unmarked) [Example 89], the IC50 in assay [1] and in assay [2] was < 500 nM throughout.

For the compound `CCCC1(CC(=O)O)OCCc2c1[nH]c1c(C)c(OCc3ccnc(C(C)=O)c3)cc(C#N)c21` (centres unmarked) [Example 90], the IC50 in assay [1] and in assay [2] was < 500 nM throughout.

Regarding `CCCC1(CC(=O)O)OCCc2c1[nH]c1c(C)c(OCc3ccnc(C(C)(C)O)c3)cc(C#N)c21` (centres unmarked) [Example 91], the IC50 in assay [1] and in assay [2] was < 500 nM in each case.

Consider `CCCC1(CC(=O)O)OCCc2c1[nH]c1c(C)c(OCc3ccnc(C(C)O)c3)cc(C#N)c21` (centres unmarked) [Example 92], for which the IC50 in assay [1] and in assay [2] was < 500 nM in each case.

Take `CCCC1(CC(=O)O)OCCc2c1[nH]c1c(C)c(OCc3ccnc(NC(C)=O)c3)cc(C#N)c21` (centres unmarked) [Example 93]: the IC50 in assay [1] and in assay [2] was < 500 nM in each case.

For `CCCC1(CC(=O)O)OCCc2c1[nH]c1c(C)c(OCc3ccnc(COC)c3)cc(C#N)c21` (centres unmarked) [Example 94], the IC50 in assay [1] and in assay [2] (setting [3]) was < 500 nM each time.

Consider `CCCC1(CC(=O)O)OCCc2c1[nH]c1c(C)c(OCc3ccnc(C(C)=NOC)c3)cc(C#N)c21` (centres unmarked) [Example 95], for which the IC50 in assay [1] and in assay [2] was < 500 nM throughout.

As to `CCCC1(CC(=O)O)OCCc2c1[nH]c1c(C)c(OCc3ccnc(NS(C)(=O)=O)c3)cc(C#N)c21` (centres unmarked) [Example 96], the IC50 in assay [1] and in assay [2] was < 500 nM in each case.

With `CCCC1(CC(=O)O)OCCc2c1[nH]c1c(C)c(OC[C@@H]3CCC(=O)N3)cc(C#N)c21` (some centres unmarked) [Example 97], the IC50 in assay [1] and in assay [2] was < 500 nM in each case.

With `CCCC1(CC(=O)O)OCCc2c1[nH]c1c(C)c(OCC(C)=O)cc(C#N)c21` (centres unmarked) [Example 98], the IC50 in assay [1] was 500 to 5000 nM; in assay [2], < 500 nM.

For the compound `CCCC1(CC(=O)O)OCCc2c1[nH]c1c(C)c(OCC(C)=NOC)cc(C#N)c21` (centres unmarked) [Example 100], the IC50 in assay [1] and in assay [2] was < 500 nM each time.

As for `CCCC1(CC(=O)O)OCCc2c1[nH]c1c(C)c(OC[C@H]3CCC(=O)N3)cc(C#N)c21` (some centres unmarked) [Example 101], the IC50 in assay [1] and in assay [2] was < 500 nM in each case.

On to `CCCC1(CC(=O)O)OCCc2c1[nH]c1c(C)c(OCC(C)O)cc(C#N)c21` (centres unmarked) [Example 102], for which the IC50 in assay [1] and in assay [2] was < 500 nM throughout.

Take `CCCC1(CC(=O)O)OCCc2c1[nH]c1c(C)c(OCC(=O)NC)cc(C#N)c21` (centres unmarked) [Example 103]: the IC50 in assay [1] and in assay [2] was < 500 nM each time.

Regarding `CCCC1(CC(=O)O)OCCc2c1[nH]c1c(C)c(OCC(C)=NOCC)cc(C#N)c21` (centres unmarked) [Example 104], the IC50 in assay [1] and in assay [2] was < 500 nM throughout.

For `CCCC1(CC(=O)O)OCCc2c1[nH]c1c(C)c(OCC(C)=NOCC)cc(C#N)c21` (centres unmarked) [Example 105], the IC50 in assay [1] was < 500 nM; in assay [2] (read-out: BB7 IC50, BB7 (Con1) NS5B), < 500 nM.

Turning to `CCCC1(CC(=O)O)OCCc2c1[nH]c1c(C)c(OCC3CCSCC3)cc(C#N)c21` (centres unmarked) [Example 106], the IC50 in assay [1] and in assay [2] was < 500 nM throughout.

Take `CCCC1(CC(=O)O)OCCc2c1[nH]c1c(C)c(OCC3CCS(=O)(=O)CC3)cc(C#N)c21` (centres unmarked) [Example 107]: the IC50 in assay [1] and in assay [2] was < 500 nM in each case.

Turning to `CCCC1(CC(=O)O)OCCc2c1[nH]c1c(C)c(OCC3CCOCC3)cc(C#N)c21` (centres unmarked) [Example 108], the IC50 in assay [1] and in assay [2] (setting [3]) was < 500 nM each time.

`CCCC1(CC(=O)O)OCCc2c1[nH]c1c(C)c(OCc3cc(C)nc(C)c3)cc(C#N)c21` (centres unmarked) [Example 109]: the IC50 in assay [1] and in assay [2] (setting [3]) was < 500 nM in each case.

`CCCC1(CC(=O)O)OCCc2c1[nH]c1c(C)c(OCc3nccn3C)cc(C#N)c21` (centres unmarked) [Example 110]: the half-maximal inhibitory concentration (IC50) in assay [1] and in assay [2] was < 500 nM in each case.

For `CCCC1(CC(=O)O)OCCc2c1[nH]c1c(C)c(OCCOCC)cc(C#N)c21` (centres unmarked) [Example 111], the IC50 in assay [1] and in assay [2] was < 500 nM throughout.

As for `CCCC1(CC(=O)O)OCCc2c1[nH]c1c(C)c(OCCOC(C)C)cc(C#N)c21` (centres unmarked) [Example 112], the IC50 in assay [1] and in assay [2] was < 500 nM each time.

Take `CCCC1(CC(=O)O)OCCc2c1[nH]c1c(C)c(OCOC)cc(C#N)c21` (centres unmarked) [Example 113]: the IC50 in assay [1] and in assay [2] was < 500 nM each time.

As to `CCCC1(CC(=O)O)OCCc2c1[nH]c1c(C)c(OCCN(C)Cc3ccccc3)cc(C#N)c21` (centres unmarked) [Example 114], the IC50 in assay [1] and in assay [2] was < 500 nM throughout.

On to `CCCC1(CC(=O)O)OCCc2c1[nH]c1c(C)c(OCCOCCOC)cc(C#N)c21` (centres unmarked) [Example 115], for which the IC50 in assay [1] and in assay [2] (setting [3]) was < 500 nM throughout.

`CCCC1(CC(=O)O)OCCc2c1[nH]c1c(C)c(OCc3nnnn3C)cc(C#N)c21` (centres unmarked) [Example 116]: the IC50 in assay [1] and in assay [2] was < 500 nM in each case.

On to `CCCC1(CC(=O)O)OCCc2c1[nH]c1c(C)c(OCCOCc3ccccc3)cc(C#N)c21` (centres unmarked) [Example 117], for which the IC50 in assay [1] and in assay [2] was < 500 nM in each case.

For `CCC[C@]1(CC(=O)O)OCCc2c1[nH]c1c(C)c(OCCOCC)cc(C#N)c21` [Example 118], the IC50 in assay [1] and in assay [2] was < 500 nM each time.

On to `CCCC1(CC(=O)O)OCCc2c1[nH]c1c(C)c(OCCCOC)cc(C#N)c21` (centres unmarked) [Example 119], for which the IC50 in assay [1] and in assay [2] was < 500 nM throughout.

Turning to `CCCC1(CC(=O)O)OCCc2c1[nH]c1c(C)c(OCCOCC3CC3)cc(C#N)c21` (centres unmarked) [Example 120], the half-inhibitory concentration (IC50) in assay [1] and in assay [2] (setting [3]) was < 500 nM throughout.

For `CCCC1(CC(=O)O)OCCc2c1[nH]c1c(C)c(OCC(C)OC)cc(C#N)c21` (centres unmarked) [Example 121], the IC50 in assay [1] and in assay [2] was < 500 nM in each case.

For the compound `CCCC1(CC(=O)O)OCCc2c1[nH]c1c(C)c(OCC3CCN(S(C)(=O)=O)CC3)cc(C#N)c21` (centres unmarked) [Example 122], the IC50 in assay [1] and in assay [2] was < 500 nM in each case.

On to `CCCC1(CC(=O)O)OCCc2c1[nH]c1c(C)c(OCC3CN(S(C)(=O)=O)C3)cc(C#N)c21` (centres unmarked) [Example 123], for which the IC50 in assay [1] and in assay [2] was < 500 nM in each case.

Values taken from patent publication US20070219212A1, “Pyranouidole Derivatives and the Use Thereof for the Treatment of Hepatitis C Virus Infection or Disease” (priority 2004, published 2007).
